≈ marks a conversion by molar mass, not a printed value. Read-outs that look alike come from different tables or passages of the source.
Tests used:
[1] = molecular target: T1, ScErg11p6×His (S. cerevisiae lanosterol 14α-demethylase) (Saccharomyces cerevisiae, UniProt P10614); assay: Type II binding (difference spectra) to affinity purified ScErg11p6×His; conditions: for Induced spectral shift on ligand binding Wavelength: Soret peak, (-) indicates no significant change in Soret peak wavelength; for [Azole]0.5: azole concentration giving half ΔAmax, 1 µM ScErg11p6×His; for type of binding (difference spectra): azole up to 2 μM, 1 μM ScErg11p6×His; for mode of inhibition: ScErg11p6×His
T1 construct: Crystal structures of the full length S. cerevisiae lanosterol 14α-demethylase (ScErg11p6×His); 6×His (hexahistidine); made in house; host or cells: Saccharomyces cerevisiae (AD3Δ overexpression strain, native ERG11 deleted)
T1 sequence (P10614 whole entry): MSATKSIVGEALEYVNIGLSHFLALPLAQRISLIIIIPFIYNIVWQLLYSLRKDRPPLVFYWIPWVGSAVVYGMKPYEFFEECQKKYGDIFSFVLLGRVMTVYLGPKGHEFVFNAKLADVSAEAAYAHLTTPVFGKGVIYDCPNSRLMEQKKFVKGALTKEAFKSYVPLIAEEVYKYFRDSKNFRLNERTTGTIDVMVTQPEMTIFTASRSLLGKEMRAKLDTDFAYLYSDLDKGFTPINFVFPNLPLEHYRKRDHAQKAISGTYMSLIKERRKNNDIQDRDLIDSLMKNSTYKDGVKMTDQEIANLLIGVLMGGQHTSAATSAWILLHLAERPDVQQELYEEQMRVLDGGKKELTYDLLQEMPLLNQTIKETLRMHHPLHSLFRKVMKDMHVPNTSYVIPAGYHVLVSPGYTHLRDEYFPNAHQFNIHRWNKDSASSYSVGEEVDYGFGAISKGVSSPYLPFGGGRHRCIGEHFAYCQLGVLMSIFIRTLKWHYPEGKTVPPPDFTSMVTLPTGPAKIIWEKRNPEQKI
Experimental: Type II azole binding is characterised by a shift of the Soret peak from 417 nm to 421–424 nm in ScErg11p6×His and other cytochrome P450s. The type II difference spectra were used to detect and quantitate binding of the inhibitors S-TBZ, R-TBZ, S-PTZ, R-PTZ, S-DPZ, R-DPZ, S-oxo-PTZ and R-oxo-PTZ, FQZ, and PRZ using Ni-NTA affinity purified wild type ScErg11p6×His preparations at 1 μM. Spectral shifts, [Azole]0.5 values, Hill coefficients as well as Type II difference spectra binding curves are shown in S3 Table (selected spectra shown in S2 Fig) and Fig 6, respectively.
Samples of Ni-NTA-agarose affinity purified ScErg11p6×His were eluted with 40 mM histidine instead of imidazole as described by Warrilow et al.. Samples were washed free of the histidine and concentrated by centrifugal filtration using a 50 kDa molecular-weight cut-off Amicon Ultra-4 centrifugal filter (Millipore) to give protein with a Soret peak at 417 nm. Carbon monoxide binding was used to determine the concentration of functional cytochrome P450 for drug binding studies as described previously based on the protocol described by Guengerich et al. Saturation curves for the binding of type II ligands were determined by obtaining difference spectra for functional enzyme at 1 μM as described previously. […] All calculations were carried out using GraphPad Prism 6 Software (GraphPad Prism, San Diego, CA). [Azole]0.5 values were defined as the concentration of the azole drug that gave half ΔAmax.
Hill coefficients and Kd values were obtained by applying the Hill equation as described in Materials and methods. (-) indicates no significant change in Soret peak wavelength on exposure to the ligand. The data presented is a representative set

[2] = system: S. cerevisiae AD2Δ host strain (native ERG11 retained); assay: MIC50 broth microdilution, AD2Δ host strain with native ERG11 retained; assay type: cell-based, Saccharomyces cerevisiae
Experimental: (§1) The susceptibility to azole compounds of S. cerevisiae AD3Δ strains overexpressing Erg11p6×His wild type and Y140F/H, but with the native ERG11 deleted, as well as the host strain (AD2Δ) which retained the wild type ERG11 (S2 Table), were measured as MIC50 values (Table 1). […] PTZ has been reported to be a prodrug for DPZ [27]. […] There was a 3.3 fold (0.28 ± 0.02 μM) and a 4.3 fold (1.2 ± 0.2 μM) reduction in susceptibility to S-PTZ in the Y140F and Y140H mutant strains respectively. There was only a 2 fold reduction in susceptibility to R-PTZ in the Y140H mutant strain with no change seen in the Y140F strain. The PTZ metabolite, S-DPZ produced a 4.6 fold (0.073 ± 0.016 μM) and 3 fold (0.048 ± 0.009 μM) reduction is susceptibility against the Y140F and Y140H mutant strains respectively. […] Again we observed 8.3 fold (3.3 ± 0.7 μM) and 4 fold (1.6 ± 0.5 μM) reduction in susceptibility to FQZ in the Y140F and Y140H mutant strains respectively.
(§2) The susceptibilities of strains overexpressing wild type ScErg11p6×His and ScErg11p6×His Y140F/H to CYP51 inhibitors were measured as MIC50 values using broth microdilution assays as described previously.[21] The MIC50s were defined as the concentration of drug required for 50% growth inhibition compared to no drug controls.

[3] = system: S. cerevisiae AD3Δ overexpressing ScErg11p6×His wild type, native ERG11 deleted; assay: MIC50 broth microdilution, AD3Δ strain overexpressing wild type ScErg11p6×His; assay type: cell-based, Saccharomyces cerevisiae
Experimental: as §1, §2

[4] = system: S. cerevisiae AD3Δ overexpressing ScErg11p6×His Y140F, native ERG11 deleted; assay: MIC50 broth microdilution, strain overexpressing ScErg11p6×His Y140F; assay type: cell-based, Saccharomyces cerevisiae; conditions: for fold reduction in susceptibility in Y140F mutant strain: MIC50 Y140F strain versus AD3Δ wild type overexpressing strain
Experimental: as §1, §2

[5] = system: S. cerevisiae AD3Δ overexpressing ScErg11p6×His Y140H, native ERG11 deleted; assay: MIC50 broth microdilution, strain overexpressing ScErg11p6×His Y140H; assay type: cell-based, Saccharomyces cerevisiae; conditions: for fold reduction in susceptibility in Y140H mutant strain: MIC50 Y140H strain versus AD3Δ wild type overexpressing strain
Experimental: as §1, §2

[6] = system: Alternaria sonali, Fulvia fulva, Botrytis cinerea and Rhizoctonia solani; parameters: method as in PMID 23451708; conditions: 4 fungal pathogens; cited from earlier work
Candida albicans CYP51 = system: Candida albicans CYP51; parameters: method as in PMID 23275516; conditions: cited from earlier work

Compound	Induced spectral shift on ligand binding Wavelength [1]	MIC50 ([2]; Saccharomyces cerevisiae) [µM]	MIC50 ([3]; Saccharomyces cerevisiae) [µM]	MIC50 ([4]; Saccharomyces cerevisiae) [µM]	MIC50 ([5]; Saccharomyces cerevisiae) [µM]	Kd [1] [nM]	[Azole]0.5 [1] [µM]	type of binding (difference spectra) [1]	other results
O=c1[nH]cnn1CC(O)(Cc1ccccc1Cl)C1(Cl)CC1 (stereo not drawn) [oxo-PTZ, oxo-prothioconazole]	absence of a spectral shift	–	–	–	–	–	–	–	–
O[C@](Cc1ccccc1Cl)(Cn1cncn1)C1(Cl)CC1 [R-Prothioconazole-desthio, R-prothioconazole-desthio]	–	0.47 ± 0.05 (≈ 0.147 µg/mL)	3.2 ± 0.2 (≈ 0.999 µg/mL)	7.5 (≈ 2.34 µg/mL)	7.5 (≈ 2.34 µg/mL)	54 ± 31	0.33	type II binding	fold reduction in susceptibility in Y140F mutant strain [4]: 2.3 fold; fold reduction in susceptibility in Y140H mutant strain [5]: 2.3 fold
C[C@@H]1CO[C@@](Cn2cncn2)(c2ccc(Oc3ccc(Cl)cc3)cc2Cl)O1 [2S,4R stereoisomer, 1-(((2S,4R)-2-(2-chloro-4-(4-chlorophenoxy)phenyl)-4-methyl-1,3-dioxolan-2-yl)methyl)-1H-1,2,4-triazole]	–	–	–	–	–	–	–	–	stereoselective bioactivity among DFC stereoisomers [6]: most active compound
OC(Cc1ccccc1Cl)(Cn1nc[nH]c1=S)C1(Cl)CC1 (stereo not drawn) [R-Prothioconazole, R-prothioconazole]	417 (-) nm	–	–	–	–	–	–	–	MIC50 ([2]; AD2Δ host, native ERG11 retained, mean ± standard error): 5.2 ± 1.3 µM (≈ 1.79 µg/mL); MIC50 ([3]; AD3Δ, ScErg11p6×His overexpressed from PDR5 locus, native ERG11 deleted, mean ± standard error): 16 ± 3 µM (≈ 5.51 µg/mL); fold reduction in susceptibility in Y140F mutant strain ([4]; listed as R-PTZ): no change; MIC50 ([4]; Y140F, ScErg11p6×His Y140F overexpressed from PDR5 locus, native ERG11 deleted, mean ± standard error): 16 ± 4 µM (≈ 5.51 µg/mL); fold reduction in susceptibility in Y140H mutant strain ([5]; listed as R-PTZ): 2 fold; MIC50 ([5]; Y140H, ScErg11p6×His Y140H overexpressed from PDR5 locus, native ERG11 deleted, mean ± standard error): 31 ± 4 µM (≈ 10.7 µg/mL)
OC(Cc1ccccc1Cl)(Cn1cncn1)C1(Cl)CC1 (stereo not drawn) [DPZ, prothioconazole-desthio]	417 nm to ~421	–	–	–	–	–	–	–	mode of inhibition [1]: non-competitive inhibitors; Kd (Candida albicans CYP51; read-out: Kd (tight type II binding), Candida albicans CYP51, type II binding): 36.4 ± 10.7 nM
O=c1c2cc(F)ccc2nc(-n2cncn2)n1-c1ccc(Cl)cc1Cl [Fluquinconazole, fluquinconazole]	–	0.17 ± 0.02 (≈ 0.064 µg/mL)	0.4 ± 0.05 (≈ 0.15 µg/mL)	3.3 ± 0.7 (≈ 1.24 µg/mL)	1.6 ± 0.5 (≈ 0.602 µg/mL)	15 ± 21	0.31	type II binding	fold reduction in susceptibility in Y140F mutant strain [4]: 8.3 fold; fold reduction in susceptibility in Y140H mutant strain [5]: 4 fold; mode of inhibition [1]: non-competitive inhibitors; Induced spectral shift on ligand binding Wavelength ([1]; listed as FQZ): 417 nm to ~421
OC(Cc1ccccc1Cl)(Cn1nc[nH]c1=S)C1(Cl)CC1 (stereo not drawn) [PTZ, prothioconazole]	absence of a spectral shift	–	–	–	–	–	–	no binding	Kd (Candida albicans CYP51; Candida albicans CYP51, type I difference spectra, read-out: Kd (weak type I difference spectra)): 6300 ± 1500 nM
CC(C)(C)[C@](O)(CCc1ccc(Cl)cc1)Cn1cncn1 [R-Tebuconazole, R-tebuconazole]	–	0.12 (≈ 0.0369 µg/mL)	1.1 ± 0.3 (≈ 0.339 µg/mL)	2 ± 0.2 (≈ 0.616 µg/mL)	5.2 ± 1.3 (≈ 1.6 µg/mL)	65 ± 35	0.30	type II binding	–

Reference: paper PMC5132298 (PLoS ONE, 2016)
